Assay: Body weight monitoring during the in vivo experiment
Parameters: species or system dogs
Details: entire experiment (180 days)
Description: After each surgical procedure each dog received marbofloxacin 2% (1 mg/kg body weight) during 4 days. The body weight of all dogs was monitored during the entire experiment. Data are expressed as mean±SEM. Data were analyzed using one way analysis of variance (ANOVA), followed by the Bonferroni test or Kruskal-Wallis analysis and Dunnett T3. P≦0.05 was considered significant.

C[C@H](CCC(=O)O)[C@H]1CC[C@H]2[C@@H]3[C@@H](O)C[C@@H]4C[C@H](O)CC[C@]4(C)[C@H]3CC[C@]12C [UDCA, ursodeoxycholic acid]
body weight of the dogs over time: gained or lost no body weight over time

Reference: US9901609B2, “Medicinal plant extract” (UNIVERSITY OF ANTWERP, priority 2013, dated 2018)
